The values below come from ChEMBL document CHEMBL3046369, “Synthesis of novel optically pure -amino acid functionalised-7-trifluoromethyl substituted quinolone derivatives and their antibacterial activity” (2013).

For orientation: MIC means the smallest concentration in the dilution series that meets the test's criterion for growth inhibition.

Holding throughout (assay type): functional
For assay [1], the system named is Bacillus subtilis. The assay is described as follows: Antibacterial activity against Bacillus subtilis assessed as growth inhibition by microtitration method.
In assay [2] the test system is Pseudomonas aeruginosa. The assay is described as follows: Antibacterial activity against Pseudomonas aeruginosa assessed as growth inhibition by microtitration method.
The test system of assay [3] is Escherichia coli. The assay is described as follows: Antibacterial activity against Escherichia coli assessed as growth inhibition by microtitration method.
Assay [4] has as its system Staphylococcus aureus. The assay is described as follows: Antibacterial activity against Staphylococcus aureus assessed as growth inhibition by microtitration method.
The test system of assay [5] is Staphylococcus epidermidis. Put plainly: Antibacterial activity against Staphylococcus epidermidis assessed as growth inhibition by microtitration method.
For assay [6], the system named is Klebsiella aerogenes. The assay is described as follows: Antibacterial activity against Enterobacter aerogenes assessed as growth inhibition by microtitration method.

For the compound `CC[C@@H](C)[C@H](NC(=O)c1cn(CC)c2cc(C(F)(F)F)ccc2c1=O)C(=O)O`, the MIC in assay [1] amounted to 25 µg/mL; in assay [2] it was 6.25 µg/mL; in assay [3], 12.5 µg/mL; in assay [4], 25 µg/mL; in assay [5], 6.25 µg/mL; in assay [6], 12.5 µg/mL.
Consider `CC[C@@H](C)[C@H](NC(=O)c1cnc2cc(C(F)(F)F)ccc2c1O)C(=O)O`, for which the MIC in assay [1] is 50 µg/mL; in assay [2], 25 µg/mL; in assay [3] it was 25 µg/mL; in assay [4], 25 µg/mL; in assay [5] it was 25 µg/mL; in assay [6], 25 µg/mL.
With `CCOC(=O)[C@H](C)NC(=O)c1cn(CC)c2cc(C(F)(F)F)ccc2c1=O`, the MIC in assay [1] was 25 µg/mL; in assay [2], 25 µg/mL; in assay [3], 25 µg/mL; in assay [4], 50 µg/mL; in assay [5], 6.25 µg/mL; in assay [6], 12.5 µg/mL.
For the compound `CCn1cc(C(=O)N[C@@H](C)C(=O)O)c(=O)c2ccc(C(F)(F)F)cc21`, the minimal inhibitory concentration (MIC) in assay [1] was 50 µg/mL; in assay [2] it was 25 µg/mL; in assay [3] it was 12.5 µg/mL; in assay [4] it was 12.5 µg/mL; in assay [5] it was 6.25 µg/mL; in assay [6], 12.5 µg/mL.
On to `CCOC(=O)[C@@H](NC(=O)c1cn(CC)c2cc(C(F)(F)F)ccc2c1=O)[C@H](C)CC`, for which the MIC amounted to 50 µg/mL in assay [1]; 25 µg/mL in assay [2]; 25 µg/mL in assay [3]; 25 µg/mL in assay [4]; 25 µg/mL in assay [5]; 12.5 µg/mL in assay [6].
For the compound `CCn1cc(C(=O)N[C@@H](CC(C)C)C(=O)O)c(=O)c2ccc(C(F)(F)F)cc21`, the MIC in assay [1] came out at 25 µg/mL; in assay [2] it was 6.25 µg/mL; in assay [3], 12.5 µg/mL; in assay [4], 25 µg/mL; in assay [5], 6.25 µg/mL; in assay [6], 12.5 µg/mL.
For `CCn1cc(C(=O)N[C@H](Cc2ccccc2)C(=O)O)c(=O)c2ccc(C(F)(F)F)cc21`, the MIC stood at 25 µg/mL in assay [1]; 25 µg/mL in assay [2]; 25 µg/mL in assay [3]; 25 µg/mL in assay [4]; 25 µg/mL in assay [5]; 12.5 µg/mL in assay [6].
For the compound `CCn1cc(C(=O)N[C@H](C(=O)O)C(C)C)c(=O)c2ccc(C(F)(F)F)cc21`, the MIC in assay [1] stood at 50 µg/mL; in assay [2] it was 6.25 µg/mL; in assay [3] it was 12.5 µg/mL; in assay [4] it was 12.5 µg/mL; in assay [5], 6.25 µg/mL; in assay [6], 3.12 µg/mL.
`CCOC(=O)[C@H](CC(C)C)NC(=O)c1cn(CC)c2cc(C(F)(F)F)ccc2c1=O`: the MIC turned out to be 50 µg/mL in assay [1]; 6.25 µg/mL in assay [2]; 25 µg/mL in assay [3]; 25 µg/mL in assay [4]; 25 µg/mL in assay [5]; 12.5 µg/mL in assay [6].
For `CC(C)[C@H](NC(=O)c1cnc2cc(C(F)(F)F)ccc2c1O)C(=O)O`, the MIC in assay [1] came out at 50 µg/mL; in assay [2] it was 25 µg/mL; in assay [3], 25 µg/mL; in assay [4], 25 µg/mL; in assay [5] it was 25 µg/mL; in assay [6], 25 µg/mL.
On to `CC(C)C[C@H](NC(=O)c1cnc2cc(C(F)(F)F)ccc2c1O)C(=O)O`, for which the MIC was 50 µg/mL in assay [1]; 25 µg/mL in assay [2]; 25 µg/mL in assay [3]; 25 µg/mL in assay [4]; 25 µg/mL in assay [5]; 25 µg/mL in assay [6].
Regarding `CCOC(=O)[C@H](Cc1ccccc1)NC(=O)c1cn(CC)c2cc(C(F)(F)F)ccc2c1=O`, the MIC amounted to 50 µg/mL in assay [1]; 6.25 µg/mL in assay [2]; 12.5 µg/mL in assay [3]; 25 µg/mL in assay [4]; 6.25 µg/mL in assay [5]; 6.25 µg/mL in assay [6].
With `O=C(O)c1cn(C2CC2)c2cc(N3CCNCC3)c(F)cc2c1=O` [CIPROFLOXACIN], the MIC in assay [1] was 0.048 µg/mL; in assay [2], 0.012 µg/mL; in assay [4] it was 0.048 µg/mL; in assay [5], 0.012 µg/mL; in assay [6], 0.012 µg/mL.
For `CCn1cc(C(=O)N2CCC[C@H]2C(=O)O)c(=O)c2ccc(C(F)(F)F)cc21`, the MIC in assay [1] amounted to 25 µg/mL; in assay [2], 6.25 µg/mL; in assay [3], 12.5 µg/mL; in assay [4], 25 µg/mL; in assay [5] it was 6.25 µg/mL; in assay [6], 6.25 µg/mL.
As for `O=C(O)[C@@H]1CCCN1C(=O)c1cnc2cc(C(F)(F)F)ccc2c1O`, the MIC was 50 µg/mL in assay [1]; 25 µg/mL in assay [2]; 25 µg/mL in assay [3]; 25 µg/mL in assay [4]; 50 µg/mL in assay [5]; 25 µg/mL in assay [6].
Consider `C[C@H](NC(=O)c1cnc2cc(C(F)(F)F)ccc2c1O)C(=O)O`, for which the MIC stood at 50 µg/mL in assay [1]; 25 µg/mL in assay [2]; 25 µg/mL in assay [3]; 25 µg/mL in assay [4]; 25 µg/mL in assay [5]; 50 µg/mL in assay [6].
Take `CCn1cc(C(=O)N[C@H](C)C(=O)O)c(=O)c2ccc(C(F)(F)F)cc21`: the MIC in assay [1] was 50 µg/mL; in assay [2], 12.5 µg/mL; in assay [3], 12.5 µg/mL; in assay [4], 25 µg/mL; in assay [5], 25 µg/mL; in assay [6], 25 µg/mL.
`CCOC(=O)[C@@H](Cc1ccccc1)NC(=O)c1cn(CC)c2cc(C(F)(F)F)ccc2c1=O`: the MIC in assay [1], in assay [2], in assay [3], in assay [4], in assay [5] and in assay [6] was 25 µg/mL throughout.
Take `C[C@@H](NC(=O)c1cnc2cc(C(F)(F)F)ccc2c1O)C(=O)O`: the MIC in assay [1] amounted to 50 µg/mL; in assay [2] it was 6.12 µg/mL; in assay [3], 25 µg/mL; in assay [4], 25 µg/mL; in assay [5], 12.5 µg/mL; in assay [6], 25 µg/mL.
For the compound `O=C(N[C@@H](Cc1ccccc1)C(=O)O)c1cnc2cc(C(F)(F)F)ccc2c1O`, the minimum inhibitory concentration (MIC) in assay [1] amounted to 50 µg/mL; in assay [2] it was 25 µg/mL; in assay [3] it was 25 µg/mL; in assay [4], 12.5 µg/mL; in assay [5], 25 µg/mL; in assay [6] it was 25 µg/mL.
Take `CCOC(=O)[C@@H](NC(=O)c1cn(CC)c2cc(C(F)(F)F)ccc2c1=O)C(C)C`: the MIC stood at 25 µg/mL in assay [1]; 25 µg/mL in assay [2]; 25 µg/mL in assay [3]; 25 µg/mL in assay [4]; 25 µg/mL in assay [5]; 12.5 µg/mL in assay [6].
On to `O=C(N[C@H](Cc1ccccc1)C(=O)O)c1cnc2cc(C(F)(F)F)ccc2c1O`, for which the MIC came out at 50 µg/mL in assay [1]; 6.12 µg/mL in assay [2]; 25 µg/mL in assay [3]; 25 µg/mL in assay [4]; 25 µg/mL in assay [5]; 12.5 µg/mL in assay [6].
On to `CCOC(=O)[C@@H]1CCCN1C(=O)c1cn(CC)c2cc(C(F)(F)F)ccc2c1=O`, for which the MIC in assay [1] stood at 50 µg/mL; in assay [2] it was 6.25 µg/mL; in assay [3], 25 µg/mL; in assay [4] it was 25 µg/mL; in assay [5], 25 µg/mL; in assay [6] it was 12.5 µg/mL.
For the compound `CCn1cc(C(=O)N[C@@H](Cc2ccccc2)C(=O)O)c(=O)c2ccc(C(F)(F)F)cc21`, the MIC worked out at 50 µg/mL in assay [1]; 3.12 µg/mL in assay [2]; 12.5 µg/mL in assay [3]; 12.5 µg/mL in assay [4]; 3.12 µg/mL in assay [5]; 6.25 µg/mL in assay [6].
For `CCOC(=O)[C@@H](C)NC(=O)c1cn(CC)c2cc(C(F)(F)F)ccc2c1=O`, the MIC in assay [1] was determined as 25 µg/mL; in assay [2], 6.12 µg/mL; in assay [3], 25 µg/mL; in assay [4] it was 25 µg/mL; in assay [5], 25 µg/mL; in assay [6], 12.5 µg/mL.
